Patent publication US10765662B2, “Mono- or di-substituted indole derivatives as dengue viral replication inhibitors” (Janssen Pharmaceuticals, Inc., priority 2015, dated 2020)
pEC50: −log10 of the molar value.

What was measured:
DENV-3 strain H87 = experiment: Tetravalent RT-qPCR assay Protocol A, serotype 3; format: cell-based; settings: Dengue virus, DENV3, 72 h; RT-qPCR serotype 3 H87, Vero cells, day 3
Description: (§1) The antiviral activity of the compounds of the invention was tested against DENV-1 strain TC974#666 (NCPV), DENV-2 strain 16681, DENV-3 strain H87 (NCPV) and DENV-4 strains H241 (NCPV) and EDEN (SG/06K2270DK1/2005; GenBank accession number QG398256) in a RT-qPCR assay. Therefore, Vero cells were infected with either DENV-1, or -2, or -3, or -4 in the presence or absence of test compounds. At day 3 post-infection, the cells were lysed and cell lysates were used to prepare cDNA of both a viral target (the 3′UTR of DENV; Table 2) and a cellular reference gene (β-actin, Table 2). Subsequently, a duplex real time PCR was performed on a Lightcycler480 instrument. The generated Cp value is inversely proportional to the amount of RNA expression of these targets. Inhibition of DENV replication by a test compound results in a shift of Cp's for the 3′UTR gene. On the other hand, if a test compound is toxic to the cells, a similar effect on β-actin expression will be observed. The comparative ΔΔCp method is used to calculate EC50, which is based on the relative gene expression of the target gene (3′UTR) normalized with the cellular housekeeping gene (β-actin). In addition, CC50 values are determined based on the Cp values acquired for the housekeeping gene β-actin.
(§2) The culture medium consisted of minimal essential medium supplemented with 2% of heat-inactivated fetal calf serum, 0.04% gentamycin (50 mg/mL) and 2 mM of L-glutamine. Vero cells, obtained from ECACC, were suspended in culture medium and 75 μL/well was added in 96-well plates (10000 cells/well), which already contain the antiviral compounds. […] In addition, each plate contains wells which are assigned as virus controls (containing cells and virus in the absence of compound) and cell controls (containing cells in the absence of virus and compound). Once the cells were added in the plates, the plates were incubated in a fully humidified incubator (37° C., 5% CO2) until the next day. Dengue viruses serotype-1, 2, 3 and 4 were diluted in order to obtain a Cp of ˜22-24 in the assay. Therefore, 25 μL of virus suspension, was added to all the wells containing test compound and to the wells assigned as virus control. In parallel, 25 μL of culture medium was added to the cell controls. Next, the plates were incubated for 3 days in a fully humidified incubator (37° C., 5% CO2). After 3 days, the supernatant was removed from the wells and the cells were washed twice with ice-cold PBS (˜100 μL). The cell pellets within the 96-well plates were stored at −80° C. for at least 1 day. Next, RNA was extracted using the Cells-to-CT™ lysis kit, according to the manufacturer's guideline (Life Technologies). The cell lysates can be stored at −80° C. or immediately used in the reverse transcription step.
(§3) In preparation of the reverse transcription step, mix A (table 3A) was prepared and 7.57 μL/well was dispensed in a 96-well plate. After addition of 5 μL of the cell lysates, a five minute denaturation step at 75° C. was performed (table 3B). Afterwards, 7.43 μL of mix B was added (table 3C) and the reverse transcription step was initiated (table 3D) to generate cDNA.
(§4) Finally, a RT-qPCR mix was prepared, mix C (table 4A), and 22.02 μL/well was dispensed in 96-well LightCycler qPCR plates to which 3 μL of cDNA was added and the qPCR was performed according to the conditions in table 4B on a LightCycler 480.
(§5) Using the LightCycler software and an in-house LIMS system, dose response curves for each compound were calculated and the half maximal effective concentration (EC50) and the half maximal cytotoxic concentration (CC50) were determined (Tables 5-8).

DENV-1 strain TC974#666 = experiment: Tetravalent RT-qPCR assay Protocol A, serotype 1; format: cell-based; settings: Dengue virus, DENV1, 72 h; RT-qPCR serotype 1 TC974#666, Vero cells, day 3
Description: as §1, §2, §3, §4, §5

DENV-4 strain H241 = experiment: Tetravalent RT-qPCR assay Protocol A, serotype 4 H241; format: cell-based; settings: Dengue virus, DENV4, Vero, 72 h
Description: as §1, §2, §3, §4, §5

DENV-2 strain 16681 = experiment: Tetravalent RT-qPCR assay Protocol A, serotype 2; format: cell-based; settings: Dengue virus, DENV2, 72 h; RT-qPCR serotype 2 16681, Vero cells, day 3
Description: as §1, §2, §3, §4, §5

in vitro [1] = format: cell-based; settings: African green monkey
Description: as §1, §2, §5

Vero cells = experiment: in vitro; format: cell-based; settings: African green monkey
Description: (§6) In parallel, the toxicity of the compounds was assessed on the same plates. Once the read-out for the eGFP signal was done, 40 μL of ATPlite, a cell viability stain, was added to all wells of the 384-well plates. ATP is present in all metabolically active cells and the concentration declines very rapidly when the cells undergo necrosis or apoptosis. The ATPLite assay system is based on the production of light caused by the reaction of ATP with added luciferase and D-luciferin. The plates were incubated for 10 minutes at room temperature. Next, the plates were measured on a ViewLux. The half maximal cytotoxic concentration (CC50) was also determined, defined as the concentration required to reduce the luminescent signal by 50% compared to that of the cell control wells. Finally, the selectivity index (SI) was determined for the compounds, which was calculated as followed: SI=CC50/EC50.

[2] = tested on: DENV-2 16681 strain labeled with enhanced green fluorescent protein; experiment: DENV-2 antiviral assay (eGFP fluorescence read-out in Vero cells); format: cell-based, Dengue virus; settings: DENV-2 16681 eGFP, MOI 0.5, 3 days
Description: The antiviral activity of all the compounds of the invention was tested against the DENV-2 16681 strain which was labeled with enhanced green fluorescent protein (eGPF). The culture medium consists of minimal essential medium supplemented with 2% of heat-inactivated fetal calf serum, 0.04% gentamycin (50 mg/mL) and 2 mM of L-glutamine. Vero cells, obtained from ECACC, were suspended in culture medium and 25 μL was added to 384-well plates (2500 cells/well), which already contain the antiviral compounds. Typically, these plates contain a 5-fold serial dilution of 9 dilution steps of the test compound at 200 times the final concentration in 100% DMSO (200 nL). […] Finally, each plate contains wells which are assigned as virus controls (containing cells and virus in the absence of compound), cell controls (containing cells in the absence of virus and compound) and medium controls (containing medium in the absence of cells, virus and compounds). To the wells assigned as medium control, 25 μL of culture medium was added instead of Vero cells. Once the cells were added to the plates, the plates were incubated for 30 minutes at room temperature to allow the cells to distribute evenly within the wells. Next, the plates were incubated in a fully humidified incubator (37° C., 5% CO2) until the next day. Then, DENV-2 strain 16681, labeled with eGFP, was added at a multiplicity of infection (MOI) of 0.5. Therefore, 15 μL of virus suspension was added to all the wells containing test compound and to the wells assigned as virus control. In parallel, 15 μL of culture medium was added to the medium and cell controls. Next, the plates were incubated for 3 days in a fully humidified incubator (37° C., 5% CO2). At the day of the read out, the eGFP fluorescence was measured using an automated fluorescence microscope at 488 nm (blue laser). Using an in-house LIMS system, inhibition dose response curves for each compound were calculated and the half maximal effective concentration (EC50) was determined. Therefore, the percent inhibition (I) for every test concentration is calculated using the following formula: I=100*([…])/(SVC−SCC); ST, SCC and SVC are the amount of eGFP signal in the test compound, cell control and virus control wells, respectively. The EC50 represents the concentration of a compound at which the virus replication is inhibited with 50%, as measured by a 50% reduction of the eGFP fluorescent intensity compared to the virus control. The EC50 is calculated using linear interpolation (Table 1).

in vitro [3] = format: cell-based; settings: African green monkey, CC50
Description: as §6

[4] = Dengue virus, DENV2, Vero, 72 h

| SMILES | pEC50 (DENV-3 strain H87) | pEC50 (DENV-1 strain TC974#666) | pEC50 (DENV-4 strain H241) | pEC50 (DENV-2 strain 16681) | CC50 at 3 days (in vitro [1]) [nM] | CC50 (Vero cells) [nM] | pEC50 [2] | CC50 (in vitro [3]) [nM] | pEC50 [2, 4] | melting point [°C] |
| --- | --- | --- | --- | --- | --- | --- | --- | --- | --- | --- |
| COc1cc(NC(C(=O)c2c[nH]c3cc(F)ccc23)c2ccc(Cl)cc2OCCO)cc(S(C)(=O)=O)c1 (single isomer, unassigned) [Compound 1A, 2-(4-chloro-2-(2-hydroxyethoxy)phenyl)-1-(6-fluoro-1H-indol-3-yl)-2-((3-methoxy-5-(methylsulfonyl)phenyl)amino)ethanone] | 8.02 | 8.89 | 7.15 | 9.62 | > 2500 | 3700 | 9.62 |  |  |  |
| COc1cc(NC(C(=O)c2c[nH]c3cc(OC)c(OC(F)(F)F)cc23)c2ccc(Cl)cc2OCCO)cc(S(C)(=O)=O)c1 (single isomer, unassigned) [Compound 11B, 2-(4-chloro-2-(2-hydroxyethoxy)phenyl)-2-((3-methoxy-5-(methylsulfonyl)phenyl)amino)-1-(6-methoxy-5-(trifluoromethoxy)-1H-indol-3-yl)ethanone] | 8.89 | 9.92 | 7.96 | 10.21 | > 2500 | > 2300 | 10.05 |  |  |  |
| COc1cc(NC(C(=O)c2c[nH]c3cc(OC)ccc23)c2ccc(Cl)cc2OCCO)cc(S(C)(=O)=O)c1 (racemic) [Compound 3, 2-(4-chloro-2-(2-hydroxyethoxy)phenyl)-1-(6-methoxy-1H-indol-3-yl)-2-((3-methoxy-5-(methylsulfonyl)phenyl)amino)ethanone] |  |  |  |  |  |  |  | 12000 | 9.27 | 149 |
| COc1cc(NC(C(=O)c2c[nH]c3c(C)c(F)ccc23)c2ccc(Cl)cc2OCCO)cc(S(C)(=O)=O)c1 (racemic) [Compound 4, 2-(4-chloro-2-(2-hydroxyethoxy)phenyl)-1-(6-fluoro-7-methyl-1H-indol-3-yl)-2-((3-methoxy-5-(methylsulfonyl)phenyl)amino)ethanone] |  |  |  |  |  |  |  | 3700 | 9.38 | 173 |
| COc1cc(NC(C(=O)c2c[nH]c3ccc(OC(F)(F)F)cc23)c2ccc(Cl)cc2OCCO)cc(S(C)(=O)=O)c1 (single isomer, unassigned) [Compound 10B, 2-(4-chloro-2-(2-hydroxyethoxy)phenyl)-2-((3-methoxy-5-(methylsulfonyl)phenyl)amino)-1-(5-(trifluoromethoxy)-1H-indol-3-yl)ethanone] | 8.85 | 10.15 | 8.16 | 10.31 | > 2400 | 2400 | 10.17 |  |  |  |
| COc1cc(NC(C(=O)c2c[nH]c3ccc(C(F)(F)F)cc23)c2ccc(Cl)cc2OCCO)cc(S(C)(=O)=O)c1 (racemic) [Compound 9, 2-(4-chloro-2-(2-hydroxyethoxy)phenyl)-2-((3-methoxy-5-(methylsulfonyl)phenyl)amino)-1-(5-(trifluoromethyl)-1H-indol-3-yl)ethanone] |  |  |  |  |  |  |  | > 2500 | 10.00 | 228 |
| COc1cc(NC(C(=O)c2c[nH]c3c(C)cc(OC(F)(F)F)cc23)c2ccc(Cl)cc2OCCO)cc(S(C)(=O)=O)c1 (single isomer, unassigned) [Compound 12B, 2-(4-chloro-2-(2-hydroxyethoxy)phenyl)-2-((3-methoxy-5-(methylsulfonyl)phenyl)amino)-1-(7-methyl-5-(trifluoromethoxy)-1H-indol-3-yl)ethanone] | 8.96 | 10.07 | 8.26 | 10.28 | > 2300 |  | 10.47 |  |  |  |
| COc1cc(NC(C(=O)c2c[nH]c3ccc(C(F)(F)F)cc23)c2ccc(Cl)cc2OCCO)cc(S(C)(=O)=O)c1 (single isomer, unassigned) [Compound 9B, 2-(4-chloro-2-(2-hydroxyethoxy)phenyl)-2-((3-methoxy-5-(methylsulfonyl)phenyl)amino)-1-(5-(trifluoromethyl)-1H-indol-3-yl)ethanone] | 8.92 | 10.08 | 8.09 | 10.27 | 2900 | > 2400 | 10.21 |  |  |  |
| COc1cc(NC(C(=O)c2c[nH]c3cc(F)c(C)cc23)c2ccc(Cl)cc2OCCO)cc(S(C)(=O)=O)c1 (single isomer, unassigned) [Compound 8A, 2-(4-chloro-2-(2-hydroxyethoxy)phenyl)-1-(6-fluoro-5-methyl-1H-indol-3-yl)-2-((3-methoxy-5-(methylsulfonyl)phenyl)amino)ethanone] | 8.38 | 9.41 | 7.44 | 9.57 |  |  | 9.96 | > 2500 |  |  |
